The test system of data set [1] is panel of clinical isolates. The data set is described as follows: In vitro antifungal activity, panel of clinical isolates (FIG. 11B). It counts as cell-based. The note with it: read-out: Mean MIC. The text has this: Burke, Andes, and Lindquist reported in 2015 a series of AmB derivatives in which the C16 acid is replaced with a urea motif via a scalable 3-step synthesis from AmB (FIG. 11A). Davis, S. A., et al., Nat Chem Biol 2015, 11 (7), 481-7. AmBUreas were studied at REVOLUTION Medicines, a biotech company for which Burke is a Founder and Consultant and Steinbach served on the Clinical Advisory Board.
(§1) Both AmBAU and AmBTACBU was further tested and compared to AmB against four strains of clinically relevant Candida species and four challenging strains of A. fumigatus (FIG. 11D).

The format of data set [2] is binding. The text has this: (§2) However, an alternative method was developed for reproducible formation of homogenous AmB and C2′epiAmB sterol sponge aggregates in vitro. Using these preparations, a quantitative UV-Vis and Principle Component (PCA) based assay for determining the apparent KDS for the binding of AmB and C2′epiAmB to ergosterol and cholesterol (FIGS. 5A-D) was developed.
(§3) Biophysical studies support the conclusion that different capacities to bind cholesterol underlie these striking differences in toxicity for the AmBUreas versus C2′epiAmB (FIG. 15). Isothermal titration calorimetry is unable to distinguish between cholesterol binding in these two series. However, a more sensitive and quantitative UV-Vis/PCA based sponge-sterol titration experiments described above (see Example 1) was employed to quantify the binding of a representative AmB urea (AmBAU) to ergosterol and cholesterol. […] It was reasoned that the lack of cholesterol binding in C2′epiAmB to a ligand-selective allosteric effect was caused by epimerization of the C2′stereocenter (see Example 1), and thus predict that the biophysical effects associated with C2′-epimerization should be transposable to other AmB derivatives.

The next data set has as its system C. albicans. Nature of the data set: MIC against C. albicans with and without pre-complexation with ergosterol. Format: cell-based. The note with it: sponge pre-complexed with ergosterol. The text has this:
Anderson, T. M. et al., Nat Chem Biol 2014, 10 (5), 400-6. […] Davis, S. A., et al., Nat Chem Biol 2015, 11 (7), 481-7. To test whether C2′epiAmB primarily kills cells via the same sterol sponge mechanism, the C2′epiAmB sponge was similarly pre-complexed with ergosterol (FIG. 9). […] Thus, C2′epiAmB similarly kills yeast primarily via sterol binding, and, by extension, the new compounds targeted in this application are expected to have a similar barrier to fungal resistance that has been observed for the past 50+ years with AmB.

The next data set relates to invasive candidiasis. The data set is described as follows: Murine model of invasive candidiasis, intraperitoneal AmBUreas (FIG. 12). It counts as in vivo, mice. The protocol: (§4) To enable a head-to-head comparison with the AmB urea derivatives, AmB was delivered as a non-deoxycholate complex. […] These AmBUreas were also tested via intravenous administration in a similar model at EvoTec (Oxfordshire, UK), and their activities were compared directly with IV AmB-deoxycholate (Fungizone®) and liposomal AmB (AmBisome®) (FIG. 13).

The subject of data set [3] is four strains of clinically relevant Candida species and four challenging strains of A. fumigatus. The data set is described as follows: In vitro antifungal activity, four Candida strains and four A. fumigatus strains (FIG. 11D). Format: cell-based. The note with it: Aspergillus fumigatus, read-out: Mean MIC.
Description: as §1

For data set [4], the system named is primary human renal epithelial cells (hREC). An excerpt: As a complementary parallel first step in the screening funnel, the MTC's of all new derivatives will be evaluated against hREC using a WST-8 cell proliferation assay kit as previously described above. The MTC will be determined by calculating the mean of at least two biological replicates.
Data set [5] in a line: UV-Vis/PCA sterol sponge titration, cholesterol. It counts as binding.
Description: as §2, §3

Data set [6] in a line: IV toxicity in mice (mortality). It counts as in vivo. The note with it: IV, mice.
Another data set concerns human red blood cells. It counts as cell-based.
The subject of another data set is Scedosporium prolificans. Nature of the data set: In vitro antifungal activity against Scedosporium prolificans. It counts as cell-based. The note with it: recalcitrant strain. An excerpt: (§5) Steinbach and Burke recently collaborated to further compare the activity of a series of AmBUreas (AmBAU, AmBMU, and AmBCU) with AmBisome®, C2′epiAmB, caspofungin, and voriconazole against a wide range of clinically relevant pathogens, including AmB-resistant Scedosporium strains (FIG. 11C).

Data set [7] can be described thus: IV toxicity in rats (BUN, ALT/AST, mortality). The note with it: 6 mg/kg.
The next data set deals with candidiasis. Nature of the data set: Candidiasis mouse model, intravenous administration (EvoTec, FIG. 13). Format: in vivo, mice. As to the method: as §4
The subject of data set [8] is wide range of clinically relevant pathogens. Nature of the data set: In vitro antifungal activity, wide range of clinically relevant pathogens (FIG. 11C). Format: cell-based. To be noted: across a wide range of pathogens.
Description: as §5

A short description of data set [9]: PK/PD properties in mice, rats and dogs (FIG. 14). It counts as in vivo. To be noted: rats, dogs.
A further data set concerns yeast. Nature of the data set: Activity against yeast / cell killing (FIG. 2). Format: cell-based. An excerpt: (§6) This key discovery opened a path to the rational development of a non-toxic AmB variant. To probe its predicted role in sterol binding, the hydroxyl group was synthetically deleted at the C2′ position on the mycosamine appendage. […] Consistent with the sterol sponge model, this derivative retained good activity against yeast but, most importantly, was nontoxic to human red blood cells and primary (hREC) (FIG. 2B).
(§7) A practical 11-step synthesis of C2′epiAmB using a frontier site-selective acylation method was developed (FIG. 4). Wilcock, B. C. et al., Nat Chem 2012, 4 (12), 996-1003; Uno, B. E. A synthesis enabled understanding of Amphotericin B leading to derivatives with improved therapeutic indices. University of Illinois at Urbana-Champaign, 2014. The sterol binding and cell killing activities was then determined.

Data set [10] can be described thus: Isothermal titration calorimetry (ITC) sterol binding, cholesterol. To be noted: within detection limits of ITC.
Description: as §6, §7

Data set [11] in a line: Isothermal titration calorimetry (ITC) sterol binding, ergosterol. The note with it: within detection limits of ITC.
Description: as §6, §7

The subject of data set [12] is A. fumigatus 91, A. fumigatus 1100. Nature of the data set: MIC against A. fumigatus 91 and A. fumigatus 1100. It counts as cell-based. An excerpt:
The results with C2′epiAmBAU strongly support the prediction that C16 modifications will show improved potency compared to C2′epiAmB. […] Thus, it is expected that hybridizations of C2′epiAmB with other urea side chains will yield similar increases in potency without any mammalian toxicity. If this proves not to be the case, other classes of C16 modifications that also increase potency will be pursed. […] Alternative modifications may be pursed at the mycosamine appendage that the modelling predicts should similarly eliminate the water-bridged C2′OH to C13OH hydrogen bond, e.g., C2′deoxygenation, C2′-halodeoxygenation, or C2′-methyldeoxygenation, and thus eliminate cholesterol binding (see FIGS. 3A and 3B). This study anticipates high doses of non-toxic C2′epiAmBUreas will yield a significant reduction in fungal burden and therefore an increase in survival in QD dosing efficacy studies relative to AmB-deoxycholate (Fungizone®), AmBisome®, C2′epiAmB, voriconazole, and caspofungin.

Values after ≈ are worked out from the molar mass of the structure shown. Read-outs that look alike come from different tables or passages of the source. Where only a bound is given, the exact number is not on record here.

Turning to `C[C@@H]1[C@H](O)[C@@H](C)/C=C/C=C/C=C/C=C/C=C/C=C/C=C/[C@H](O[C@@H]2O[C@H](C)[C@@H](O)[C@H](N)[C@@H]2O)C[C@@H]2O[C@](O)(C[C@@H](O)C[C@@H](O)[C@H](O)CC[C@@H](O)C[C@@H](O)CC(=O)O[C@H]1C)C[C@H](O)[C@H]2C(=O)O` [AmB, Amphotericin B], the minimal inhibitory concentration (MIC) in data set [1] was 1.23 µM (≈ 1.14 µg/mL). In data set [2], this molecule had a Kd of 120 nM. Besides, the “change in potency upon ergosterol pre-complexation” value in the data set with C. albicans is recorded as “same reduction in potency”. Also, the dose-response result in the data set on invasive candidiasis (AmB delivered as a non-deoxycholate complex) is listed as “atypical lack of dose-response”. Further, the minimal inhibitory concentration (MIC) in data set [3] is 1.33 µM (≈ 1.23 µg/mL). For the same molecule, in data set [4] (human), the “minimum toxic concentration (MTC) against primary hRECs” value stood at 2.4 µM and the “minimum toxic concentration (MTC) in hREC, preliminary analysis” value lay in the range of 2 to 4 µM.

As to `C[C@@H]1[C@H](O)[C@@H](C)/C=C/C=C/C=C/C=C/C=C/C=C/C=C/C(OC2O[C@H](C)[C@@H](O)[C@H](N)[C@@H]2O)C[C@@H]2O[C@](O)(C[C@@H](O)C[C@@H](O)[C@H](O)CC[C@@H](O)C[C@@H](O)CC(=O)O[C@H]1C)C[C@H](O)[C@H]2NC(=O)NCCN` (stereo partly drawn) [AmBAU], the binding to cholesterol entry in [5] was “confirmed to bind”. Also, in data set [6], the “dose at which death was observed” value was 32 mg/kg. The “concentration failing to fully lyse red blood cells” value with human red blood cells (highest concentrations tested) is greater than 500 µM. In [2] (UV-Vis/PCA sponge-sterol titration), the binding to ergosterol result was “confirmed to bind”. Besides, the “activity against Scedosporium prolificans” value with Scedosporium prolificans is reported as “active”. The efficacy result with invasive candidiasis (administered intraperitoneally) is listed as “exceptionally effective”. Moreover, the MIC in data set [3] (FIG. 11D, four Candida and four A. fumigatus strains) came to 0.5 µM (≈ 0.491 µg/mL). For the same molecule, in [7], the toxicity in rats entry is recorded as “significant toxicity”. The kidney fungal burden result in the data set on candidiasis (1 mg/kg, within the limits of assay detection) is on record as “sterilization in multiple mice”; with candidiasis (16 mg/kg) it was “complete sterilization”. Also, in data set [4], the “minimum toxic concentration (MTC) against primary hRECs” value came to 11.3 µM. The antifungal potency result in data set [8] was “excellent potency”. The PK/PD properties result in data set [9] was “favorable PK/PD properties”.

In the case of `CNC(=O)N[C@H]1[C@@H]2CC(OC3O[C@H](C)[C@@H](O)[C@H](N)[C@@H]3O)/C=C/C=C/C=C/C=C/C=C/C=C/C=C/[C@H](C)[C@@H](O)[C@@H](C)[C@H](C)OC(=O)C[C@H](O)C[C@H](O)CC[C@@H](O)[C@H](O)C[C@H](O)C[C@](O)(C[C@@H]1O)O2` (stereo partly drawn) [AmBMU], the binding to cholesterol entry in data set [5] is given as “retains the capacity to bind cholesterol”. In data set [7], the toxicity in rats entry is “significant toxicity”. The “minimum toxic concentration (MTC) against primary hRECs” value in [4] (human) stood at 44.4 µM.

In the case of `CC1C=CC=CC=CC=CC=CC=CC=CC(OC2CC(N)C(O)C(C)O2)CC2OC(O)(CC(O)CC(O)C(O)CCC(O)CC(O)CC(=O)OC(C)C(C)C1O)CC(O)C2C(=O)O` (stereo not drawn) [C2′deOAmB, reference compound], in the data set on yeast, the activity against yeast entry was “good activity”. The “binding of cholesterol by ITC” value in data set [10] was “not cholesterol”. The “toxicity to human red blood cells” value with human red blood cells was “nontoxic”. For the same molecule, the “binding of ergosterol by ITC” value in data set [11] was “bind ergosterol”. Further, the “toxicity to primary hREC” value in data set [4] is “nontoxic”.

For `COC(=O)C1C(O)CC2(O)CC(O)CC(O)C(O)CCC(O)CC(O)CC(=O)OC(C)C(C)C(O)C(C)C=CC=CC=CC=CC=CC=CC=CC(OC3OC(C)C(O)C(N)C3O)CC1O2` (stereo not drawn) [C2′epiAmBME, C2′epiAmB C16 methyl ester], the MIC in [12] (A. fumigatus 91) and in data set [12] (A. fumigatus 1100) was 4 µM (≈ 3.75 µg/mL) throughout.

Values taken from US11198705B2, “Hybrid Amphotericin B derivatives with reduced toxicity” (priority 2018, dated 2021).
